Reference: patent US9739784B2, “Giant obscurins and uses thereof in cancer prognosis and therapy” (UNIVERSITY OF MARYLAND, BA, priority 2013, dated 2017)

System: obscurin-KD MCF10A cells
Assay: Sensitivity of obscurin-KD MCF10A cells to chemotherapeutic drugs (cell viability)
Format: cell-based, human
Conditions: compared to control cells
Source text: Moreover, loss of giant obscurins results in major cytoskeletal alterations leading to increased cell growth, motility and invasion. […] Thus, breast cancer cells may have different responses to cytoskeletal-targeting chemotherapies depending on the relative expression of giant obscurins.

Compound | sensitivity of obscurin-depleted MCF10A cells to the drug
COc1cc([C@@H]2c3cc4c(cc3[C@@H](O[C@@H]3O[C@@H]5CO[C@@H](C)O[C@H]5[C@H](O)[C@H]3O)[C@H]3COC(=O)[C@H]23)OCO4)cc(OC)c1O [etoposide] | reduced sensitivity
CC(=O)O[C@H]1C(=O)[C@@]2(C)[C@H]([C@H](OC(=O)c3ccccc3)[C@]3(O)C[C@H](OC(=O)[C@H](O)[C@@H](NC(=O)c4ccccc4)c4ccccc4)C(C)=C1C3(C)C)[C@]1(OC(C)=O)CO[C@@H]1C[C@@H]2O [paclitaxel] | reduced sensitivity
